Assay results published in patent publication US11034659B2, “Pyrimidine derivative” (Daiichi Sankyo Company, Limited, priority 2016, dated 2021).
Where a name gives a salt, the structure may show the parent alone.

System: CuFi-1 cells
Test: Secretory activity for chloride ions (MQAE fluorescence) in CuFi-1 cells
Type: cell-based
Conditions: zinc final concentration 10 μM
Experimental: Measurement of the secretory activity for chloride ions was performed in accordance with a previous report (West and Molloy, 1996). CuFi-1 cells were plated on a 96 well plate in 3×10^4 cells/well and incubated for two nights. After removing the culture medium, 100 μL/well of N-(ethoxycarbonylmethyl)-6-methoxyquinolinium bromide (MQAE) (diluted with culture medium and the concentration adjusted to 5 mM) was added. After the addition of MQAE, the cells were incubated for one night so that the indicator was passively loaded. After the loading, the cells were washed two times with Assay buffer, and 100 μL/well of Assay buffer was added. The secretory capacity for chloride ions was measured using FlexStation 1 (fluorescence wavelength of Ex: 355 nm/Em: 460 nm). In order to measure the basic value, nothing was added for 34 seconds immediately after the start of the measurement. Then, at this point, 100 μL/well of the test compound and zinc (final concentration: 10 μM) diluted with Assay buffer, which is free of chloride ions, was added, and the measurement was continued for 86 seconds (total measurement time: 120 seconds). The secretory capacity for chloride ions was calculated by dividing the average of RFU values in 10 seconds between 110 seconds and 120 seconds after the start of the measurement with the average between 0 second and 34 seconds (the basic value). The secretory activity for chloride ions of the test compound (EC50 value) was calculated by obtaining the secretory capacity for chloride ions at each concentration of the serially diluted test compound, and determining a concentration of the test compound that provides a secretory capacity of 50% from two secretory capacities and concentrations sandwiching 50% of the maximum response of each compound.

[1] = Homo sapiens, CuFi-1, CuFi-1 cells

EC50 [1] [nM] | EC50 (CuFi-1 cells, hydrochloride) [nM] | SMILES
9.4 |  | CCc1nc(C(=O)O)nc(OC)c1Cc1cccc(F)c1Cl [Example 44]
19.6 |  | Cc1nc(C(=O)O)nc(N[C@@H](C)C(N)=O)c1Cc1ccc(Cl)cc1Cl [Example 4, (S)-4-((1-Amino-1-oxopropan-2-yl)amino)-5-(2,4-dichlorobenzyl)-6-methylpyrimidine-2-carboxylic acid hydrochloride]
3.7 |  | CSc1nc(C(=O)O)nc(C)c1Cc1ccc(Cl)cc1Cl [Example 75, 5-(2,4-Dichlorobenzyl)-4-methyl-6-(methylthio)pyrimidine-2-carboxylic acid]
53 |  | CCN(CC)c1nc(C(=O)O)nc(C)c1Cc1ccc(Cl)cc1Cl [Example 3, 5-(2,4-Dichlorobenzyl)-4-(diethylamino)-6-methylpyrimidine-2-carboxylic acid hydrochloride]
18.6 |  | CCNc1nc(C(=O)O)nc(CC)c1Sc1ccc(Cl)cc1Cl [Example 21]
50.3 |  | Cc1nc(C(=O)O)nc(NCC(C)(C)O)c1Cc1ccc(Cl)cc1Cl [Example 6, 5-(2,4-Dichlorobenzyl)-4-((2-hydroxy-2-methylpropyl)amino)-6-methylpyrimidine-2-carboxylic acid]
5.9 |  | CCNc1nc(C(=O)O)nc(CC)c1Sc1ccccc1Cl [Example 20]
7.1 |  | Cc1nc(C(=O)O)nc(Cc2ccccc2Cl)c1Cc1ccccc1Cl [Example 88, 4,5-Bis(2-chlorobenzyl)-6-methylpyrimidine-2-carboxylic acid]
9.5 |  | Cc1nc(C(=O)O)nc(NC(C)C)c1Sc1ccccc1Cl [Example 30]
9.4 |  | CCOc1nc(C(=O)O)nc(CC)c1Cc1cccc(Cl)c1Cl [Example 48, 5-(2,3-Dichlorobenzyl)-4-ethoxy-6-ethylpyrimidine-2-carboxylic acid]
6.4 |  | Cc1nc(C(=O)O)nc(OCc2ccccc2)c1Cc1ccccc1Cl [Example 90]
8.2 |  | CCOc1nc(C(=O)O)nc(CC)c1Cc1ccc(Cl)cc1F [Example 51]
8.9 |  | Cc1nc(C(=O)O)nc(CCc2ccncc2)c1Cc1ccccc1Cl [Example 101, 5-(2-Chlorobenzyl)-4-methyl-6-(2-(pyridin-4-yl)ethyl)pyrimidine-2-carboxylic acid]
6.6 |  | CCSc1nc(C(=O)O)nc(C)c1Cc1ccc(Cl)cc1Cl [Example 79, 5-(2,4-Dichlorobenzyl)-4-(ethylthio)-6-methylpyrimidine-2-carboxylic acid]
10.8 |  | CCNc1nc(C(=O)O)nc(CC)c1Cc1ccc(Cl)cc1Cl [Example 15, 5-(2,4-Dichlorobenzyl)-4-ethyl-6-(ethylamino)pyrimidine-2-carboxylic acid]
24.8 |  | CCOc1nc(C(=O)O)nc(C)c1Cc1ccc(F)cc1Cl [Example 49]
10.4 |  | Cc1nc(C(=O)O)nc(SC(C)C)c1Cc1ccccc1Cl [Example 84]
16.3 |  | CCc1nc(C(=O)O)nc(OC)c1Cc1cccc(Cl)c1Cl [Example 41]
4.8 |  | CCc1nc(C(=O)O)nc(OCCCF)c1Cc1ccccc1Cl [Example 63]
2.2 |  | Cc1nc(C(=O)O)nc(OCc2ccncc2)c1Cc1ccccc1Cl [Example 94]
15.8 |  | CCOc1nc(C(=O)O)nc(C)c1Cc1ccccc1Cl [Example 52, 5-(2-Chlorobenzyl)-4-ethoxy-6-methylpyrimidine-2-carboxylic acid hydrochloride]

EC50 [1] [nM] | EC50 (CuFi-1 cells, hydrochloride) [nM] | SMILES
35.2 |  | COc1nc(C(=O)O)nc(C)c1Cc1ccccc1C(C)C [Example 73]
26.7 |  | COc1nc(C(=O)O)nc(C)c1Cc1ccc(F)cc1Cl [Example 69]
5 |  | CCNc1nc(C(=O)O)nc(C(C)C)c1Cc1ccccc1Cl [Example 14, 5-(2-Chlorobenzyl)-4-(ethylamino)-6-isopropylpyrimidine-2-carboxylic acid]
5.5 |  | CCNc1nc(C(=O)O)nc(C(C)C)c1Cc1ccc(Cl)cc1Cl [Example 9, 5-(2,4-Dichlorobenzyl)-4-(ethylamino)-6-isopropylpyrimidine-2-carboxylic acid]
13.5 |  | Cc1nc(C(=O)O)nc(OCc2cccc(F)c2)c1Cc1ccccc1Cl [Example 98]
59.9 |  | COc1nc(C(=O)O)nc(C(C)C)c1Cc1ccccc1Cl [Example 70]
12 |  | CCOc1nc(C(=O)O)nc(CC)c1Cc1cccc(Cl)c1F [Example 60]
7.3 |  | CCNc1nc(C(=O)O)nc(C2CC2)c1Cc1ccc(Cl)cc1Cl [Example 10, 4-Cyclopropyl-5-(2,4-dichlorobenzyl)-6-(ethylamino)pyrimidine-2-carboxylic acid]
5.5 |  | CCSc1nc(C(=O)O)nc(C)c1Cc1ccc(C#N)cc1Cl [Example 81]
5.7 |  | Cc1nc(C(=O)O)nc(OCc2ccc(F)cc2)c1Cc1ccccc1Cl [Example 97]
20.8 |  | Cc1nc(C(=O)O)nc(C)c1Cc1ccccc1Cl [Example 103, 5-(2-Chlorobenzyl)-4,6-dimethylpyrimidine-2-carboxylic acid]
8.2 |  | CNc1nc(C(=O)O)nc(C)c1Cc1ccccc1Cl [Example 87, 5-(2-Chlorobenzyl)-4-methyl-6-(methylamino)pyrimidine-2-carboxylic acid]
6.7 |  | CCNc1nc(C(=O)O)nc(CC)c1Cc1ccccc1Cl [Example 12, 5-(2-Chlorobenzyl)-4-ethyl-6-(ethylamino)pyrimidine-2-carboxylic acid]
2.4 |  | Cc1ccc(COc2nc(C(=O)O)nc(C)c2Cc2ccccc2Cl)cn1 [Example 96]
 | 7.1 | CCNc1nc(C(=O)O)nc(C)c1Sc1ccccc1Cl [Example 22, 5-((2-Chlorophenyl)thio)-4-(ethylamino)-6-methylpyrimidine-2-carboxylic acid hydrochloride]
14.9 |  | CCCOc1nc(C(=O)O)nc(CC)c1Cc1ccccc1Cl [Example 64]
50.6 |  | Cc1nc(C(=O)O)nc(NCC(=O)O)c1Cc1ccc(Cl)cc1Cl [Example 8, 4-((Carboxymethyl)amino)-5-(2,4-dichlorobenzyl)-6-methylpyrimidine-2-carboxylic acid hydrochloride]
30.2 |  | CSc1nc(C(=O)O)nc(C)c1Nc1ccccc1Cl [Example 85, 5-((2-Chlorophenyl)amino)-4-methyl-6-(methylthio)pyrimidine-2-carboxylic acid hydrochloride]
17.1 |  | COc1nc(C(=O)O)nc(C)c1Cc1ccc(Cl)cc1Cl [Example 32, 5-(2,4-Dichlorobenzyl)-4-methoxy-6-methylpyrimidine-2-carboxylic acid]
15.8 |  | CCCOc1nc(C(=O)O)nc(C)c1Cc1ccccc1Cl [Example 53]
49.4 |  | CCSc1nc(C(=O)O)nc(C)c1Oc1ccc(Cl)cc1Cl [Example 80]

EC50 [1] [nM] | EC50 (CuFi-1 cells, hydrochloride) [nM] | SMILES
14.4 |  | CNc1nc(C(=O)O)nc(C)c1Sc1ccccc1C(C)C [Example 26]
8.6 |  | CCCc1nc(C(=O)O)nc(OC)c1Cc1ccc(Cl)cc1F [Example 47]
15.9 |  | COc1ccc(Cc2c(C)nc(C(=O)O)nc2OC)c(Cl)c1 [Example 67]
41.7 |  | Cc1nc(C(=O)O)nc(N)c1Cc1ccc(Cl)cc1Cl [Example 7, 4-Amino-5-(2,4-dichlorobenzyl)-6-methylpyrimidine-2-carboxylic acid trifluoroacetate]
5.2 |  | Cc1nc(C(=O)O)nc(CCc2cccnc2)c1Cc1ccccc1Cl [Example 102]
4.6 |  | CCc1nc(C(=O)O)nc(SC)c1Cc1ccccc1Cl [Example 78]
9.9 |  | Cc1nc(C(=O)O)nc(C)c1Cc1ccc(Cl)cc1Cl [Example 104]
50.7 |  | Cc1nc(C(=O)O)nc(SC(C)C)c1Sc1ccccc1Cl [Example 83, 5-((2-Chlorophenyl)thio)-4-(isopropylthio)-6-methylpyrimidine-2-carboxylic acid hydrochloride]
29.3 |  | CCOc1nc(C(=O)O)nc(C)c1Oc1ccc(Cl)cc1Cl [Example 35]
14 |  | CNc1nc(C(=O)O)nc(C)c1Sc1ccccc1C [Example 27]
20.8 |  | CCOc1nc(C(=O)O)nc(C)c1Cc1ccc(OC)cc1Cl [Example 57]
2.1 |  | CNc1nc(-c2nnn[nH]2)nc(C)c1Cc1ccc(Cl)cc1Cl [Example 105, 5-(2,4-Dichlorobenzyl)-N,6-dimethyl-2-(1H-tetrazol-5-yl)pyrimidin-4-amine]
80.1 |  | COc1nc(C(=O)O)nc(C)c1Oc1ccc(Cl)cc1Cl [Example 34]
10.2 |  | CCOc1nc(C(=O)O)nc(C)c1Cc1cccc(Cl)c1Cl [Example 50]
34.9 |  | CCNc1nc(C(=O)O)nc(C)c1Oc1ccc(Cl)cc1Cl [Example 31]
2.6 |  | COc1nc(C(=O)O)nc(C(C)C)c1Cc1ccc(C(F)(F)F)cc1Cl [Example 72]
11.4 |  | CCOc1nc(C(=O)O)nc(CC)c1Cc1cccc(F)c1Cl [Example 61]
5.1 |  | Cc1nc(C(=O)O)nc(OCc2ccccc2F)c1Cc1ccccc1Cl [Example 99]
17.4 |  | COc1nc(C(=O)O)nc(C)c1Cc1cccc(Cl)c1Cl [Example 66]
8.1 |  | CCc1nc(C(=O)O)nc(OC)c1Cc1ccc(F)cc1Cl [Example 40]
30.3 |  | CCc1nc(C(=O)O)nc(OC)c1Sc1ccc(Cl)cc1Cl [Example 37]
